The values below are quoted from earlier work in US20230123388A1 (GLANIS PHARMACEUTICALS, INC., priority 2020, published 2023).

Assay in data set [1]: not given
This is another data set of the same source.

Data set [2] has as its system albumin and apha1-acid glycoprotein.

Counter-ions that a name gives are not always drawn. Like-named read-outs stand apart in the source and are kept apart here.

As to `CCN(CCO)CCCC(C)Nc1ccnc2cc(Cl)ccc12` (stereo not drawn) [Hydroxychloroquine sulfate], the solubility in alcohol result (alcohol) is “practically insoluble”. For the same molecule, the solubility in chloroform entry (chloroform) is listed as “practically insoluble”. Besides, the solubility in ether result (ether) is on record as “practically insoluble”. Also, the solubility in water result (water) was “freely soluble”.
With `CCN(CCO)CCCC(C)Nc1ccnc2cc(Cl)ccc12` (stereo not drawn) [Hydroxychloroquine], the “time of peak concentration” value in data set [1] (200 mg oral dose) is on record as “around 3 hours”. Further, in data set [1] (200 mg oral dose, blood), the “peak concentration in blood” value is on record as “around 129.6 ng/ml”. Also, the “plasma concentration (peak)” value in data set [1] (200 mg oral dose, plasma) is “around 50.3 ng/ml”. Also, the values for the terminal half-life in data set [1] (based on blood concentration) and in data set [1] (based on the plasma concentration profile) were 30 to 60 days and approximately 32 days, respectively. The clearance (usually a measure of how efficiently the substance is removed, as volume per time) in data set [1] (in vivo) is 15.5 L/h. For the same molecule, in data set [1] (in vivo), the half-life (commonly the time needed for the level to fall by half in the phase considered) is approximately 2.08 days. In data set [1] (in vivo, listed as HCQ), the volume of distribution result was “very large and high”. For the same molecule, the oral bioavailability result in data set [1] (oral tablet) was “about 75%”. In addition, in data set [1] (randomized cross over study, 155 mg dose oral and IV infusion), the bioavailability is listed as 0.74. In data set [2], the protein binding was approximately 40%.
